Results as given in patent publication US8604216B2, “Desferrithiocin derivatives and methods of use thereof” (University of Florida Research Foundation, Inc., priority 2003, dated 2013).

What was measured:
[1] = system: non-iron overloaded, fasted rats; test: Iron clearance in bile duct-cannulated rats; type: in vivo; settings: male Sprague-Dawley rats
Method: (S)-2-(4′,5′-dimethoxyphenyl)-4-thiazoline-4-carboxylic acid (1) was administered to non-iron overloaded, fasted rats that had been subjected to routine bile duct cannulation. Briefly, male Sprague-Dawley rats averaging 450 g were housed in Nalgene plastic metabolic cages during the experimental period and given free access to water. The animals were anesthetized using sodium pentobarbital (55 mg/kg) administered intraperitoneally. The bile duct was cannulated using 22-gauge polyethylene tubing. The cannula was inserted into the duct about 1 cm from the duodenum and tied snugly in place. After threading through the shoulder, the cannula was passed from the rat to the swivel inside a metal torque-transmitting tether, which was attached to a rodent jacket around the animal's chest. The cannula was directed from the rat to a Gilson microfraction collector (Middleton, Wis.) by a fluid swivel mounted above the metabolic cage. Bile samples were collected at 3 hour intervals for 24 hours. The urine sample was taken at 24 hours and handling was as previously described in Bergeron, R. J., et al., J Med Chem. 34:2072-2078 (1991), the contents of which are incorporated herein by reference.

[2] = system: iron-overloaded Cebus apella monkeys; test: Iron clearance in iron-overloaded Cebus apella monkeys; type: in vivo; settings: oral
Method: (S)-2-(4′,5′-dimethoxyphenyl)-4-methylthiazoline-4-carboxylic acid (2) was administered to iron-overloaded Cebus apella monkeys. The protocol can be found in Bergeron, R. J. et al., “Methoxylatoin of Desazadesferrithiocin Analogues: Enhanced Iron Clearing Efficiency,” J Med Chem. 46:1470-1477 (2003), the contents of which are incorporated herein by reference. Briefly, the monkeys were iron overloaded with iron dextran administered intravenously to result in an iron loading of about 500 mg per kg of body weight. At least 20 half-lives, 60 days, elapsed before the animals were used in experiments evaluating iron chelators. The iron chelator was solubilized in 40% Cremophor RH-40/water (v/v) and were administered orally to the monkeys. Fecal and urine samples were collected at 24 hour intervals beginning 4 days prior to the administration of an iron chelator and continued for 5 days after the chelator was administered. Iron concentrations in stool and urine were determined by flame atomic absorption spectroscopy. Iron chelator efficiency was calculated by dividing the net iron clearance [total iron excretion (stool plus urine) minus background] by the theoretical iron clearance and multiplying by 100. The theoretical clearance of the iron chelator was generated on the basis of a 2:1 ligand/iron complex. At a dose of 114.2 μmol/kg, the efficiency of 2 was calculated to be 14.8±2.9%. […] Approximately 20% of the iron was excreted in the urine, while the majority (approximately 80%) was eliminated in the feces. In a separate experiment, 2 was administered to iron overloaded Cebus apella at a dose of 150 μmol/kg. In this experiment, the iron clearing efficiency was calculated to be 16.1±4.1%. This efficiency was within error of the lower dose of 2 […].

Structure (SMILES)	tolerability [1]	efficiency of iron excretion ([1]; bile collected for 24 hours, urine at 24 hours)	share of iron eliminated in the feces ([2]; 114.2 μmol/kg)	share of iron excreted in the urine ([2]; 114.2 μmol/kg)	iron clearing efficiency ([2]; 114.2 μmol/kg, in 40% Cremophor RH-40/water, stool plus urine iron minus background vs theoretical 2:1 ligand/iron complex) [%]	iron clearing efficiency ([2]; 150 μmol/kg, separate experiment) [%]
COc1ccc([C@H]2NC(C(=O)O)=CS2)cc1OC [Compound 1, (S)-2-(4′,5′-dimethoxyphenyl)-4-thiazoline-4-carboxylic acid]	tolerated the drug well	less than 0.5%				
COc1ccc(C2=N[C@@](C)(C(=O)O)CS2)cc1OC [Compound 2, (S)-2-(4′,5′-dimethoxyphenyl)-4-methylthiazoline-4-carboxylic acid]			approximately 80%	Approximately 20%	14.8±2.9	16.1±4.1
